Laboratory results taken from patent publication US20250188092A1, “RIFAMYCIN ANALOGS” (THE REGENTS OF THE UNIVERSITY OF MICHIGAN, priority 2021, published 2025).
pIC50: −log10 of the molar value. In brackets after ≈: the same amount, converted by molar mass. Like-named read-outs stand apart in the source and are kept apart here.

What was measured:
[1] = tested on: non-replicating cultures of M. tuberculosis H37Rv transformed with lux ABCDE; assay: microbe, parasite or virus in culture; assay type: cell-based, Mycobacterium tuberculosis; conditions: for MIC90 LORA/MABA: ratio of LORA MIC90 to MABA MIC90
[2] = biological target: β-S450L (RIF^R) MTB RNAP (Mycobacterium tuberculosis, UniProt P9WGY9, S456L); conditions: read-out: RNAP IC50 MTB S450L
[3] = tested on: M. tuberculosis transformed with luxABCDE; assay: microbe, parasite or virus in culture; assay type: cell-based, Mycobacterium tuberculosis; conditions: for MBC: ≥99% reduction in luminescence, read-out: MBC99 Day 7 (Lux Assay) MBC
[4] = […], ≥90% reduction in luminescence, read-out: MIC90 LORA

CO[C@H]1/C=C/O[C@@]2(C)Oc3c(C)c(O)c4c(=O)c(c5oc6cc(N7CCC(CC(=O)O)CC7)cc(OCc7ccc(CN8CCOCC8)cc7)c6nc-5c4c3C2=O)NC(=O)/C(C)=C\C=C\[C@H](C)[C@H](O)[C@@H](C)[C@@H](O)[C@@H](C)[C@H](OC(C)=O)[C@@H]1C [Compound 17l, 2-{1-[(7S,9E,11S,12R,13S,14R,15R,16R,17S,18S,19E,21Z)-13-(acetyloxy)-2,15,17-trihydroxy-11-methoxy-3,7,12,14,16,18,22-heptamethyl-32-{[4-(morpholin-4-ylmethyl)phenyl]methoxy}-6,23,37-trioxo-8,27,38-trioxa-24,34-diazahexacyclo-[23.11.1.1^4,7.0^5,36.0^26,35.0^28,33]octatriaconta-1,3,5(36)9,19,21,25,28,30,32,34-undecaen-30-yl]piperidin-4-yl)acetic acid]
MIC90 LORA Rel to RMP [1]: 31 | MIC90 [1, 4]: 0.843 µM (≈ 0.954 µg/mL) | MIC90 LORA/MABA [1]: 4.5 | pIC50 [2]: 4.66 | MBC [3]: >0.1 µM

CO[C@H]1/C=C/O[C@@]2(C)Oc3c(C)c(O)c4c(=O)c(c5oc6cc(N7CCC(CC(=O)O)CC7)cc(N7CCC(CC(=O)O)CC7)c6nc-5c4c3C2=O)NC(=O)/C(C)=C\C=C\[C@H](C)[C@H](O)[C@@H](C)[C@@H](O)[C@@H](C)[C@H](OC(C)=O)[C@@H]1C [Compound 17v, 2-{1-[(7S,9E,11S,12R,13S,14R,15R,16R,17S,18S,19E,21Z)-13-(acetyloxy)-32-[4-(carboxymethyl)piperidin-1-yl]-2,15,17-trihydroxy-11-methoxy-3,7,12,14,16,18,22-heptamethyl-6,23,37-trioxo-8,27,38-trioxa-24,34-diazahexacyclo-[23.11.1.1^4,7.0^5,36.0^26,35.0^28,33]octatriaconta-1,3,5(36)9,19,21,25,28,30,32,34-undecaen-30-yl]piperidin-4-yl)acetic acid]
pIC50 [2]: 4.18 | MBC [3]: >0.1 µM

CO[C@H]1/C=C/O[C@@]2(C)Oc3c(C)c(O)c4c(=O)c(c5oc6cc(N7CCN(C(=O)c8cccc(-c9ccccn9)c8)CC7)cc(OCc7ccc(CN8CCOCC8)cc7)c6nc-5c4c3C2=O)NC(=O)/C(C)=C\C=C\[C@H](C)[C@H](O)[C@@H](C)[C@@H](O)[C@@H](C)[C@H](OC(C)=O)[C@@H]1C [Compound 17r, (7S,9E,11S,12R,13S,14R,15R,16R,17S,18S,19E,21Z)-2,15,17-trihydroxy-11-methoxy-3,7,12,14,16,18,22-heptamethyl-32-{[4-(morpholin-4-ylmethyl)phenyl]methoxy}-6,23,37-trioxo-30-(4-{[3-(pyridin-2-yl)phenyl]carbonyl}piperazin-1-yl)-8,27,38-trioxa-24,34-diazahexacyclo[23.11.1.1^4,7.0^5,36.0^26,35.0^28,33]octatriaconta-1,3,5(36)9,19,21,25,28,30,32,34-undecaen-13-yl acetate]
MIC90 LORA Rel to RMP [1]: 2.60 | MIC90 [1, 4]: 0.13 µM | MIC90 LORA/MABA [1]: 5.7 | pIC50 [2]: 4.11 | MBC99 Day 7 (Lux Assay) MBC Rel to RMP [3]: 0.46 | MBC [3]: 0.205 µM

CO[C@H]1/C=C/O[C@@]2(C)Oc3c(C)c(O)c4c(=O)c(c5oc6cc(N7CCN(CC(=O)O)CC7)cc(OCc7ccc(CN8CCOCC8)cc7)c6nc-5c4c3C2=O)NC(=O)/C(C)=C\C=C\[C@H](C)[C@H](O)[C@@H](C)[C@@H](O)[C@@H](C)[C@H](OC(C)=O)[C@@H]1C [Compound 17i]
MIC90 LORA Rel to RMP [1]: 9.2 | MIC ([1]; Mycobacterium tuberculosis, H37RV, […], ≥90% reduction in luminescence, read-out: MIC90 LORA): 0.247 µM (≈ 0.28 µg/mL) | MIC90 LORA/MABA [1]: 9.5 | MBC ([3]; Mycobacterium tuberculosis, 168 h): > 0.1 µM
